Consider ten compounds from ChEMBL document CHEMBL1139236, “Introduction of non-natural amino acid residues into the substrate-specific P1 position of trypsin inhibitor SFTI-1 yields potent chymotrypsin and cathepsin G inhibitors” (Bioorg Med Chem, 2009).

Data set [1] concerns the target Chymotrypsinogen A (Bos taurus) (UniProt P00766). Briefly: Inhibition of bovine alpha-chymotrypsin assessed as association equilibrium constant.
Data set [2] concerns the target T1, Cathepsin G (Homo sapiens) (UniProt P08311).
T1 sequence (whole entry): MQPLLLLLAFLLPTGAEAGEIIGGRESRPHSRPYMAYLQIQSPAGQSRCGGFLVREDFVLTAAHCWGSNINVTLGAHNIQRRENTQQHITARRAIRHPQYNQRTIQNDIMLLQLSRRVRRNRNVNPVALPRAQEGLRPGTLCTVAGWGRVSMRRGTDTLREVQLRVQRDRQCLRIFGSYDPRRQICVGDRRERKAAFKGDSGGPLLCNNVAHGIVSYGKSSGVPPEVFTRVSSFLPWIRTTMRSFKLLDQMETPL
Briefly: Inhibition of cathepsin G assessed as association equilibrium constant.

Data set [3] has as its target T1, Cathepsin G (Homo sapiens). Briefly: Inhibition of cathepsin G assessed as association equilibrium constant relative to [Phe5]SFTI-1.
The target in data set [4] is T2, Cathepsin G (Homo sapiens, UniProt P08311).
T2 sequence (P08311 whole entry): T1 sequence (whole entry)
Kind of data set: Inhibition of cathepsin G.

In data set [5] the target is Chymotrypsinogen A (Bos taurus) (UniProt P00766). Briefly: Inhibition of bovine alpha-chymotrypsin assessed as association equilibrium constant relative to [Phe5]SFTI-1.
Data set [6] deals with Serum. Briefly: Stability in human serum at 2 mg/mL up to 24 hrs. It is filed as ADME, cell-free.

Bridge positions count the residues as written; N and C are the ends. Square brackets hold non-standard residues; d marks the D form. Peptide text beside a SMILES is read from it. Phe(4-NO2) = N[C@@H](Cc1ccc([N+](=O)[O-])cc1)C(=O)O; Phe(4-guanidino) = N=C(N)Nc1ccc(C[C@H](N)C(=O)O)cc1; Phe(4-NH2) = Nc1ccc(C[C@H](N)C(=O)O)cc1; Phe(4-F) = N[C@@H](Cc1ccc(F)cc1)C(=O)O; Phe(4-Me) = Cc1ccc(C[C@H](N)C(=O)O)cc1; 4Pal = N[C@@H](Cc1ccncc1)C(=O)O Some results are limits rather than exact numbers.

Take `CC[C@H](C)[C@@H]1NC(=O)[C@@H]2CCCN2C(=O)[C@@H]2CCCN2C(=O)[C@H]([C@@H](C)CC)NC(=O)[C@H](CO)NC(=O)[C@H](CCCCN)NC(=O)[C@H]([C@@H](C)O)NC(=O)[C@@H]2CSSC[C@H](NC1=O)C(=O)N[C@@H](Cc1ccccc1)C(=O)N1CCC[C@H]1C(=O)N[C@@H](CC(=O)O)C(=O)NCC(=O)N[C@@H](CCCNC(=N)N)C(=O)N2`: the Ka in data set [1] came out at 5.2 ×10⁶ /M; in data set [2], 5.7 ×10⁶ /M. Moreover, the Ratio in data set [3] stood at 1.54. In data set [4], the Ki (commonly the equilibrium dissociation constant of an inhibitor or competing ligand from its target) stood at 0.15 nM.

With `CC[C@H](C)[C@@H]1NC(=O)[C@@H]2CCCN2C(=O)[C@@H]2CCCN2C(=O)[C@H]([C@@H](C)CC)NC(=O)[C@H](CO)NC(=O)[C@H](CCCCN)NC(=O)[C@H]([C@@H](C)O)NC(=O)[C@@H](NC(=O)[C@H](CCCNC(=N)N)NC(=O)CN)CSSC[C@@H](C(=O)N[C@@H](Cc2ccccc2)C(=O)N2CCC[C@H]2C(=O)N[C@@H](CC(=O)O)C(=O)O)NC1=O`, in data set [1], the Ka is 5 ×10⁶ /M.

As for `CC[C@H](C)[C@@H]1NC(=O)[C@@H]2CCCN2C(=O)[C@@H]2CCCN2C(=O)[C@H]([C@@H](C)CC)NC(=O)[C@H](CO)NC(=O)[C@H](Cc2ccccc2)NC(=O)[C@H]([C@@H](C)O)NC(=O)[C@@H](NC(=O)[C@H](CCCNC(=N)N)NC(=O)CN)CSSC[C@@H](C(=O)N[C@@H](Cc2ccccc2)C(=O)N2CCC[C@H]2C(=O)N[C@@H](CC(=O)O)C(=O)O)NC1=O` (H-GRCTFSIPPICFPD-OH; disulfide 3-11), the Ka in data set [1] is 2 ×10⁹ /M; in data set [2] it was 3.7 ×10⁶ /M.

`CC[C@H](C)[C@@H]1NC(=O)[C@@H]2CCCN2C(=O)[C@@H]2CCCN2C(=O)[C@H]([C@@H](C)CC)NC(=O)[C@H](CO)NC(=O)[C@H](Cc2ccc(O)cc2)NC(=O)[C@H]([C@@H](C)O)NC(=O)[C@@H](NC(=O)[C@H](CCCNC(=N)N)NC(=O)CN)CSSC[C@@H](C(=O)N[C@@H](Cc2ccccc2)C(=O)N2CCC[C@H]2C(=O)N[C@@H](CC(=O)O)C(=O)O)NC1=O` (H-GRCTYSIPPICFPD-OH; disulfide 3-11): the Ratio in data set [5] was found to be 9.5. Besides, the Ka in data set [1] was 1.9 ×10¹⁰ /M; in data set [2], less than 1 ×10⁵ /M.

Regarding `CC[C@H](C)[C@@H]1NC(=O)[C@@H]2CCCN2C(=O)[C@@H]2CCCN2C(=O)[C@H]([C@@H](C)CC)NC(=O)[C@H](CO)NC(=O)[C@H](Cc2ccncc2)NC(=O)[C@H]([C@@H](C)O)NC(=O)[C@@H](NC(=O)[C@H](CCCNC(=N)N)NC(=O)CN)CSSC[C@@H](C(=O)N[C@@H](Cc2ccccc2)C(=O)N2CCC[C@H]2C(=O)N[C@@H](CC(=O)O)C(=O)O)NC1=O` (H-GRCT[4Pal]SIPPICFPD-OH; disulfide 3-11), the Ratio in data set [5] was 5.5. The Ka is 1.1 ×10¹⁰ /M in data set [1] and less than 1 ×10⁵ /M in data set [2].

In the case of `CC[C@H](C)[C@@H]1NC(=O)[C@@H]2CCCN2C(=O)[C@@H]2CCCN2C(=O)[C@H]([C@@H](C)CC)NC(=O)[C@H](CO)NC(=O)[C@H](Cc2ccc(F)cc2)NC(=O)[C@H]([C@@H](C)O)NC(=O)[C@@H](NC(=O)[C@H](CCCNC(=N)N)NC(=O)CN)CSSC[C@@H](C(=O)N[C@@H](Cc2ccccc2)C(=O)N2CCC[C@H]2C(=O)N[C@@H](CC(=O)O)C(=O)O)NC1=O` (H-GRCT[Phe(4-F)]SIPPICFPD-OH; disulfide 3-11), the Ratio worked out at 15 in data set [5] and 1.02 in data set [3]. Further, the Ka came out at 3 ×10¹⁰ /M in data set [1] and 3.8 ×10⁶ /M in data set [2].

On to `CC[C@H](C)[C@@H]1NC(=O)[C@@H]2CCCN2C(=O)[C@@H]2CCCN2C(=O)[C@H]([C@@H](C)CC)NC(=O)[C@H](CO)NC(=O)[C@H](Cc2ccc(C)cc2)NC(=O)[C@H]([C@@H](C)O)NC(=O)[C@@H](NC(=O)[C@H](CCCNC(=N)N)NC(=O)CN)CSSC[C@@H](C(=O)N[C@@H](Cc2ccccc2)C(=O)N2CCC[C@H]2C(=O)N[C@@H](CC(=O)O)C(=O)O)NC1=O` (H-GRCT[Phe(4-Me)]SIPPICFPD-OH; disulfide 3-11), for which the Ratio in data set [5] was found to be 12.5; in data set [3], 0.76. Besides, the Ka worked out at 2.5 ×10¹⁰ /M in data set [1] and 2.8 ×10⁶ /M in data set [2].

Consider `CC[C@H](C)[C@@H]1NC(=O)[C@@H]2CCCN2C(=O)[C@@H]2CCCN2C(=O)[C@H]([C@@H](C)CC)NC(=O)[C@H](CO)NC(=O)[C@H](Cc2ccc(N)cc2)NC(=O)[C@H]([C@@H](C)O)NC(=O)[C@@H](NC(=O)[C@H](CCCNC(=N)N)NC(=O)CN)CSSC[C@@H](C(=O)N[C@@H](Cc2ccccc2)C(=O)N2CCC[C@H]2C(=O)N[C@@H](CC(=O)O)C(=O)O)NC1=O` (H-GRCT[Phe(4-NH2)]SIPPICFPD-OH; disulfide 3-11), for which the Ratio in data set [5] worked out at 9.5; in data set [3], 0.97. Further, the figures for the Ka in data set [1] and in data set [2] were 1.9 ×10¹⁰ /M and 3.6 ×10⁶ /M, respectively.

On to `CC[C@H](C)[C@@H]1NC(=O)[C@@H]2CCCN2C(=O)[C@@H]2CCCN2C(=O)[C@H]([C@@H](C)CC)NC(=O)[C@H](CO)NC(=O)[C@H](Cc2ccc([N+](=O)[O-])cc2)NC(=O)[C@H]([C@@H](C)O)NC(=O)[C@@H](NC(=O)[C@H](CCCNC(=N)N)NC(=O)CN)CSSC[C@@H](C(=O)N[C@@H](Cc2ccccc2)C(=O)N2CCC[C@H]2C(=O)N[C@@H](CC(=O)O)C(=O)O)NC1=O` (H-GRCT[Phe(4-NO2)]SIPPICFPD-OH; disulfide 3-11), for which the Ratio in data set [5] is 13. The Ka in data set [1] is 2.6 ×10¹⁰ /M; in data set [2] it was less than 1 ×10⁵ /M.

With `CC[C@H](C)[C@@H]1NC(=O)[C@@H]2CCCN2C(=O)[C@@H]2CCCN2C(=O)[C@H]([C@@H](C)CC)NC(=O)[C@H](CO)NC(=O)[C@H](Cc2ccc(NC(=N)N)cc2)NC(=O)[C@H]([C@@H](C)O)NC(=O)[C@@H](NC(=O)[C@H](CCCNC(=N)N)NC(=O)CN)CSSC[C@@H](C(=O)N[C@@H](Cc2ccccc2)C(=O)N2CCC[C@H]2C(=O)N[C@@H](CC(=O)O)C(=O)O)NC1=O` (H-GRCT[Phe(4-guanidino)]SIPPICFPD-OH; disulfide 3-11), the figures for the Ratio in data set [5] and in data set [3] were 0.09 and 2.19, respectively. Also, the Ka in data set [1] was determined as 1.8 ×10⁸ /M; in data set [2], 8.1 ×10⁷ /M. In data set [6], the Stability entry is “Stable”.
